Measured values as given in PubChem BioAssay AID192 (DTP/NCI, 2004).
“And” between values parts separate entries of the source, which are not always exact repeats. Identical values can stand only once. Toxic doses and inconclusive results are not listed.

System: BDF1 mice, B16 melanoma ip, median survival T/C
Assay: NCI In Vivo Anticancer Drug Screen. Data for tumor model B16 Melanoma (intraperitoneal) in B6D2F1 (BDF1) mice
Conditions: endpoint: median survival time, higher = longer survival
How it was run: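 Each result divides a survival or tumor-size measurement in the compound-treated group by the same measurement in the vehicle group.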

[1] = dose: 12.5 mg/kg/injection, schedule: Q01DX009 (ip), vehicle: saline with Tween-80

SMILES: CC1(C)C(C#N)C(=O)N=C(N)C1C(N)=O (stereo not drawn)
- T/C (dose: 12.0 mg/kg/injection, schedule: Q04DX003 (ip), vehicle: Klucel (hydroxypropylcellulose) (HPC)): 105 % of control
- T/C (dose: 25.0 mg/kg/injection, schedule: Q04DX003 (ip), vehicle: Klucel (hydroxypropylcellulose) (HPC)): 107 % of control
- T/C (dose: 50.0 mg/kg/injection, schedule: Q04DX003 (ip), vehicle: Klucel (hydroxypropylcellulose) (HPC)): 105 % of control
- T/C (dose: 100.0 mg/kg/injection, schedule: Q04DX003 (ip), vehicle: Klucel (hydroxypropylcellulose) (HPC)): 86 % of control and 100 % of control
- T/C (dose: 200.0 mg/kg/injection, schedule: Q04DX003 (ip), vehicle: Klucel (hydroxypropylcellulose) (HPC)): 91 % of control

SMILES: CCCCCC(C)(O)CCCCC
- T/C (dose: 100.0 mg/kg/injection, schedule: Q01DX009 (ip), vehicle: saline): 107 % of control
- T/C (dose: 200.0 mg/kg/injection, schedule: Q01DX009 (ip), vehicle: saline): 92 % of control

SMILES: NCCCC(N)(C(=O)O)C(F)F (stereo not drawn)
- T/C (dose: 50.0 mg/kg/injection, schedule: Q01DX009 (ip), vehicle: distilled water + alcohol): 94 % of control
- T/C (dose: 100.0 mg/kg/injection, schedule: Q01DX009 (ip), vehicle: distilled water + alcohol): 101 % of control
- T/C (dose: 200.0 mg/kg/injection, schedule: Q01DX009 (ip), vehicle: distilled water + alcohol): 97 % of control
- T/C (dose: 400.0 mg/kg/injection, schedule: Q01DX009 (ip), vehicle: distilled water + alcohol): 100 % of control
- T/C (dose: 800.0 mg/kg/injection, schedule: Q01DX009 (ip), vehicle: distilled water + alcohol): 110 % of control

SMILES: CN(Cc1cnc2nc(N)nc(N)c2n1)c1ccc(C(=O)N[C@@H](CCC(=O)O)C(=O)O)cc1
- T/C (dose: 0.25 mg/kg/injection, schedule: Q01DX009 (ip), vehicle: saline): 102 % of control
- T/C (dose: 0.25 mg/kg/injection, schedule: Q01DX017 (ip), vehicle: saline): 107 % of control
- T/C (dose: 0.37 mg/kg/injection, schedule: Q01DX009 (ip), vehicle: sodium bicarbonate): 93 % of control and 103 % of control
- T/C (dose: 0.5 mg/kg/injection, schedule: Q01DX009 (ip), vehicle: sodium bicarbonate): 92 % of control and 103 % of control (2×)
- T/C (dose: 0.5 mg/kg/injection, schedule: Q01DX017 (ip), vehicle: saline): 104 % of control
- T/C (dose: 0.75 mg/kg/injection, schedule: Q01DX009 (ip), vehicle: sodium bicarbonate): 104 % of control and 105 % of control
- T/C (dose: 1.0 mg/kg/injection, schedule: Q01DX017 (ip), vehicle: saline): 111 % of control
- T/C (dose: 1.5 mg/kg/injection, schedule: Q01DX009 (ip), vehicle: saline): 92 % of control
- T/C (dose: 1.5 mg/kg/injection, schedule: Q01DX009 (ip), vehicle: sodium bicarbonate): 98 % of control and 106 % of control
- T/C (dose: 2.0 mg/kg/injection, schedule: Q01DX017 (ip), vehicle: saline): 88 % of control
- T/C (dose: 2.0 mg/kg/injection, schedule: Q04DX005 (ip), vehicle: saline): 107 % of control
- T/C (dose: 3.0 mg/kg/injection, schedule: Q01DX009 (ip), vehicle: sodium bicarbonate): 94 % of control and 100 % of control
- T/C (dose: 4.0 mg/kg/injection, schedule: Q04DX003 (ip), vehicle: saline): 113 % of control
- T/C (dose: 4.0 mg/kg/injection, schedule: Q04DX005 (ip), vehicle: saline): 109 % of control
- T/C (dose: 6.0 mg/kg/injection, schedule: Q01DX009 (ip), vehicle: sodium bicarbonate): 90 % of control
- T/C (dose: 8.0 mg/kg/injection, schedule: Q04DX003 (ip), vehicle: saline): 109 % of control
- T/C (dose: 8.0 mg/kg/injection, schedule: Q04DX005 (ip), vehicle: saline): 104 % of control
- T/C (dose: 16.0 mg/kg/injection, schedule: Q04DX003 (ip), vehicle: saline): 109 % of control
- T/C (dose: 16.0 mg/kg/injection, schedule: Q04DX005 (ip), vehicle: saline): 97 % of control
- T/C (dose: 32.0 mg/kg/injection, schedule: Q01DX001 (ip), vehicle: saline): 121 % of control
- T/C (dose: 32.0 mg/kg/injection, schedule: Q04DX003 (ip), vehicle: saline): 106 % of control
- T/C (dose: 128.0 mg/kg/injection, schedule: Q01DX001 (ip), vehicle: saline): 123 % of control

SMILES: C[n+]1cccc(NC(=O)c2ccc(NC(=O)C34CCC(C(=O)Nc5ccc(C(=O)Nc6ccc[n+](C)c6)cc5)(CC3)CC4)cc2)c1
- T/C (dose: 10.0 mg/kg/injection, schedule: Q01DX009 (ip), vehicle: saline with Tween-80): 154 % of control

SMILES: CC(CN(C)C)CN1c2ccccc2CCc2ccccc21 (stereo not drawn)
- T/C (dose: 2.18 mg/kg/injection, schedule: Q01DX009 (ip), vehicle: saline): 106 % of control
- T/C (dose: 4.37 mg/kg/injection, schedule: Q01DX009 (ip), vehicle: saline): 110 % of control
- T/C (dose: 8.75 mg/kg/injection, schedule: Q01DX009 (ip), vehicle: saline): 100 % of control
- T/C (dose: 17.5 mg/kg/injection, schedule: Q01DX009 (ip), vehicle: saline): 91 % of control

SMILES: C/C=C1\CN(C)[C@H]2Cc3c([nH]c4ccccc34)[C@@H](c3cc4[nH]c5c(c4cc3OC)CCN3C[C@H]4C[C@H](CC)[C@H]3[C@@]5(C(=O)OC)C4)C[C@H]1C2C(=O)OC (stereo partly drawn)
- T/C (dose: 2.5 mg/kg/injection, schedule: Q01DX009 (ip), vehicle: suspension in saline): 98 % of control
- T/C (dose: 3.0 mg/kg/injection, schedule: Q01DX009 (ip), vehicle: saline with Tween-80): 100 % of control
- T/C (dose: 5.0 mg/kg/injection, schedule: Q01DX009 (ip), vehicle: suspension in saline): 101 % of control
- T/C (dose: 6.0 mg/kg/injection, schedule: Q01DX009 (ip), vehicle: saline with Tween-80): 95 % of control
- T/C (dose: 10.0 mg/kg/injection, schedule: Q01DX009 (ip), vehicle: suspension in saline): 99 % of control
- T/C (dose: 12.0 mg/kg/injection, schedule: Q01DX009 (ip), vehicle: saline with Tween-80): 106 % of control
- T/C (dose: 25.0 mg/kg/injection, schedule: Q04DX003 (ip), vehicle: saline with Tween-80): 90 % of control
- T/C (dose: 100.0 mg/kg/injection, schedule: Q01DX009 (ip), vehicle: saline with Tween-80): 87 % of control

SMILES: NC(=S)N/N=C/c1ccc(OC(F)(F)F)cn1
- T/C (dose: 1.56 mg/kg/injection, schedule: Q01DX009 (ip), vehicle: saline with Tween-80): 92 % of control
- T/C (dose: 3.13 mg/kg/injection, schedule: Q01DX009 (ip), vehicle: saline with Tween-80): 94 % of control
- T/C (dose: 6.25 mg/kg/injection, schedule: Q01DX009 (ip), vehicle: saline with Tween-80): 89 % of control
- T/C [1]: 95 % of control

SMILES: CCCCCC#CC(=O)OC
- T/C [1]: 102 % of control
- T/C (dose: 25.0 mg/kg/injection, schedule: Q01DX009 (ip), vehicle: saline with Tween-80): 86 % of control
- T/C (dose: 50.0 mg/kg/injection, schedule: Q01DX009 (ip), vehicle: saline with Tween-80): 86 % of control

SMILES: CCC1(CC)OC2=C(CC(C#N)(C#N)C(C#N)(C#N)C2)O1
- T/C (dose: 2.5 mg/kg/injection, schedule: Q04DX003 (ip), vehicle: Klucel (hydroxypropylcellulose) (HPC)): 96 % of control
- T/C (dose: 3.12 mg/kg/injection, schedule: Q04DX003 (ip), vehicle: Klucel (hydroxypropylcellulose) (HPC)): 100 % of control
- T/C (dose: 4.0 mg/kg/injection, schedule: Q04DX003 (ip), vehicle: Klucel (hydroxypropylcellulose) (HPC)): 98 % of control
- T/C (dose: 9.5 mg/kg/injection, schedule: Q04DX003 (ip), vehicle: Klucel (hydroxypropylcellulose) (HPC)): 96 % of control
- T/C (dose: 12.5 mg/kg/injection, schedule: Q04DX003 (ip), vehicle: Klucel (hydroxypropylcellulose) (HPC)): 88 % of control

SMILES: CCOC(=O)c1c(NC(=O)CCC(=O)Nc2sc(C)c(C)c2C(=O)OCC)sc(C)c1C
- T/C (dose: 0.09 mg/kg/injection, schedule: Q01DX009 (ip), vehicle: Klucel (hydroxypropylcellulose) (HPC)): 100 % of control
- T/C (dose: 0.19 mg/kg/injection, schedule: Q01DX009 (ip), vehicle: Klucel (hydroxypropylcellulose) (HPC)): 95 % of control
- T/C (dose: 0.39 mg/kg/injection, schedule: Q01DX009 (ip), vehicle: Klucel (hydroxypropylcellulose) (HPC)): 100 % of control
- T/C (dose: 0.78 mg/kg/injection, schedule: Q01DX009 (ip), vehicle: Klucel (hydroxypropylcellulose) (HPC)): 89 % of control
- T/C (dose: 1.56 mg/kg/injection, schedule: Q01DX009 (ip), vehicle: Klucel (hydroxypropylcellulose) (HPC)): 95 % of control

SMILES: Cc1cccc(C)c1NC(=O)Nc1ccc(Cl)c(Cl)c1
- T/C (dose: 25.0 mg/kg/injection, schedule: Q01DX009 (ip), vehicle: other): 95 % of control
- T/C (dose: 50.0 mg/kg/injection, schedule: Q01DX009 (ip), vehicle: other): 99 % of control
- T/C (dose: 100.0 mg/kg/injection, schedule: Q01DX009 (ip), vehicle: other): 87 % of control and 103 % of control

SMILES: COc1ccc(CN(CCN(C)C)c2ccccn2)cc1
- T/C (dose: 12.5 mg/kg/injection, schedule: Q01DX009 (ip), vehicle: Klucel (hydroxypropylcellulose) (HPC)): 100 % of control
- T/C (dose: 25.0 mg/kg/injection, schedule: Q01DX009 (ip), vehicle: Klucel (hydroxypropylcellulose) (HPC)): 96 % of control
- T/C (dose: 50.0 mg/kg/injection, schedule: Q01DX009 (ip), vehicle: Klucel (hydroxypropylcellulose) (HPC)): 93 % of control

SMILES: CCCCC(NC(=O)OC(C)(C)C)C(=O)O (stereo not drawn)
- T/C (dose: 100.0 mg/kg/injection, schedule: Q01DX009 (ip), vehicle: Klucel (hydroxypropylcellulose) (HPC)): 114 % of control
- T/C (dose: 200.0 mg/kg/injection, schedule: Q01DX009 (ip), vehicle: Klucel (hydroxypropylcellulose) (HPC)): 104 % of control
- T/C (dose: 400.0 mg/kg/injection, schedule: Q01DX009 (ip), vehicle: Klucel (hydroxypropylcellulose) (HPC)): 100 % of control
